{"source": "patent US6383773B2", "about": "“Penicillin conversion” (Massachusetts Institute of Technology, priority 1998, dated 2002)", "key": {"[1]": {"biological_target": "T1, S. clavuligerus expandase (Streptomyces clavuligerus, UniProt P18548)", "T1 construct": "The cells were resuspended in the same buffer and disrupted by four 25-sec. sonication treatments; endogenous in cells; host or cells: S. clavuligerus mutant NP1, crude cell-free extract", "T1 sequence (P18548 whole entry)": "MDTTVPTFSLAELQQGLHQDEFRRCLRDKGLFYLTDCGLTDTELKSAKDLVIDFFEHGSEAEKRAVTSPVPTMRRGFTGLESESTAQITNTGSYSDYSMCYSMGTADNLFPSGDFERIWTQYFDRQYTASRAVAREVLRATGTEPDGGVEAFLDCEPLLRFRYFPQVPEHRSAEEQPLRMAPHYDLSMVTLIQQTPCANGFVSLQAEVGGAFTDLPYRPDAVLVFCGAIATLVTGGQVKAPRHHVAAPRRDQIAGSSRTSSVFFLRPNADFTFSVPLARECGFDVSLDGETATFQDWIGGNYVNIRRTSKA", "conditions": "literature reports (Jensen 1982; Dotzlaf 1989; Yeh 1994; Maeda 1995); cited from earlier work"}, "[2]": {"test_system": "S. clavuligerus NP1 resting cells", "assay": "Penicillin G ring expansion by resting cells, paper disc-agar diffusion bioassay (Example 1)", "type": "cell-based", "conditions": "for DAOG produced: after 3-6 hours of reaction", "experimental": "Resting Cells: From a seed culture (in MST), 0.5 ml was transferred to new flasks containing 40 ml of the same medium. Cells were grown at 30° C., 250 rpm for 24 h. Mycelia from each flask were washed twice, and finally, resuspended in 10 ml of distilled water. Four ml of this cell suspension were used in the reaction mixture.\nRing Expansion Reaction: We defined ring expansion reaction conditions as modifications of the standard reaction mixture for expandase reactions described by Maeda et al. (Maeda et al., Enzyme Microb. Technol. 17:231-34, 1995) except that penicillin G was used a substrate instead of penicillin N. Additions were made following the order established by Shen et al. (Shen et al., Enzyme Microb. Technol. 6:402-404, 1984. Reaction mixtures were incubated in test tubes (cell-free extract) or 250 ml baffled flasks (resting cells) at 220 rpm, 30° C. Reactions containing the protein extract were stopped at various times (see Table 1 and Figure Legends) by mixing 0.5 ml of assay solution with 0.5 ml of methanol. In the case of resting cells, samples were centrifuged to remove cells and supernatants were transferred to new tubes. Expandase activity was detected by paper disc-agar diffusion bioassay.\nDetection of Expandase Activity: As mentioned above, expandase activity was detected by assaying production of a growth-inhibitory zone in a paper disc-agar diffusion bioassay. Paper discs were saturated with 200 μl of the reaction mixture (cell-free extracts or supernatant (resting cells) as follows. Two discs were superimposed and four 50 μl samples were applied. After each application, the discs were allowed to dry for 20 min at 37° C. under a laminar hood and, finally, they were placed on LB (1% tryptone, 0.5% NaCl, 0.5% yeast extract, 0.1% glucose) 0.8% agar medium seeded with E. coli ESS (a β-lactam supersensitive mutant), and the plates were incubated overnight at 37° C. The formation of DAOG and/or other cephalosporin(s) was determined by including 50,000 IU/ml of penicillinase (Difco Bacto penase concentrate, Difco Laboratories, Detroit, Mich.) in the assay plates. This penicillinase is a narrow spectrum β-lactamase that attacks penicillins but not cephalosporins. The diameters of zones of growth inhibition were measured and quantified with a calibration curve using DAOG as standard."}, "[3]": {"test_system": "resting S. clavuligerus NP1 cells", "assay": "Penicillin G ring expansion by resting cells grown on alcohol (Example 3)", "type": "cell-based"}, "C. acremonium expandase": {"biological_target": "T2, C. acremonium expandase (Hapsidospora chrysogena, UniProt P11935)", "T2 sequence (P11935 1-332)": "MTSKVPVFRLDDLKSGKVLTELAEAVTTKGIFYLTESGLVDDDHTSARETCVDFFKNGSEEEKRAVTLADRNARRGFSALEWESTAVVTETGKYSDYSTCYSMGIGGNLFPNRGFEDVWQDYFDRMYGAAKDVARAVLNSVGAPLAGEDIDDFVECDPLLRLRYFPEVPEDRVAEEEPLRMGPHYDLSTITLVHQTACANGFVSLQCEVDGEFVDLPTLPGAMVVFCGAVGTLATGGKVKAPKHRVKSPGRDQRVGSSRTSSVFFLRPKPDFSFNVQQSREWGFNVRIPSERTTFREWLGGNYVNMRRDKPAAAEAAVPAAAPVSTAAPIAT", "conditions": "cited from earlier work"}, "[4]": {"biological_target": "T3, expandase from S. clavuligerus (Streptomyces clavuligerus, UniProt P18548)", "T3 construct": "made in house; host or cells: S. lividans 1326 transformed with pHJ11, crude cell-free extract", "T3 sequence (P18548 whole entry)": "as the sequence (P18548 whole entry) above", "assay": "Ring expansion by cell-free extracts of S. lividans transformant pHJ11 (Example 7)", "type": "biochemical", "conditions": "pHJ11 cell-free extract 6 mg/ml protein, substrate 5.6 mM, after 4 h of reaction", "experimental": "Microorganism, Medium and Culture Conditions: S. lividans 1326 was used in all experiments. Cultures were grown in 250 ml baffled flasks containing 40 ml of MST medium. Each flask was inoculated with 50 μl of a spore suspension (prepared and stored at −80° C. in 20% glycerol) and incubated at 30° C., 250 rpm, for 48 h.\nPlasmids: The plasmid pUL702-202a was a gift from J. F. Martin (University of León, Spain). This vector harboured a 4.3 Kb BglII fragment containing the epimerase and expandase genes from Nocardia lactamdurans inserted at the BglII site on pIJ702. The plasmid pHJ11 was constructed by cloning a 3 Kb BglII fragment containing the expandase gene from S. clavuligerus 3585 into pIJ702 at the BglII site.\nRing Expansion Reaction: The ring expansion mixture contained 1.8 mM FeSO4, 1.28 mM α-ketoglutarate, 6 mg/ml protein (cell-free extract), 8 mM KCl, 8 mM MgSO4, 14 mM DTT and 50 mM TrisHCl (pH 7.4) in a final volume of 2.5 ml. Substrate concentration was 5.6 mM. Additions were made following the order established by Shen et al. (Enzyme Microb. Technol. 6:402-404, 1984). Reaction mixtures were incubated in test tubes at 220 rpm, 30° C. At different times, 0.5 ml samples were taken and the reaction was stopped by adding 0.5 ml of methanol. […] Biotransformation activity was detected by paper disc-agar diffusion bioassay. […]"}}, "data": [{"smiles": "CC1(C)S[C@@H]2[C@H](NC(=O)Cc3ccccc3)C(=O)N2[C@H]1C(=O)O", "note": "[Penicillin G, penicillin G]", "values": [{"measurement": "ring expansion", "setting": "[1]", "value": "not"}, {"measurement": "μg DAOG/ml", "setting": "[2]; resting cells 13 mg/ml dry cell weight, 2 mg/ml penicillin G, 2 h, cofactor omitted: ATP (0.7 mM)", "value": 10.0, "unit": "μg DAOG/ml"}, {"measurement": "μg DAOG/ml", "setting": "[2]; resting cells 13 mg/ml dry cell weight, 2 mg/ml penicillin G, 2 h, cofactor omitted: Ascorbic acid (4 mM)", "value": 3.0, "unit": "μg DAOG/ml"}, {"measurement": "μg DAOG/ml", "setting": "[2]; resting cells 13 mg/ml dry cell weight, 2 mg/ml penicillin G, 2 h, cofactor omitted: DTT (16 mM)", "value": 15.5, "unit": "μg DAOG/ml"}, {"measurement": "μg DAOG/ml", "setting": "[2]; resting cells 13 mg/ml dry cell weight, 2 mg/ml penicillin G, 2 h, cofactor omitted: FeSO4.7H2O (1.8 mM)", "value": 3.2, "unit": "μg DAOG/ml"}, {"measurement": "μg DAOG/ml", "setting": "[2]; resting cells 13 mg/ml dry cell weight, 2 mg/ml penicillin G, 2 h, cofactor omitted: KCl (8 mM)", "value": 11.5, "unit": "μg DAOG/ml"}, {"measurement": "μg DAOG/ml", "setting": "[2]; resting cells 13 mg/ml dry cell weight, 2 mg/ml penicillin G, 2 h, cofactor omitted: MgSO4.7H2O (8 mM)", "value": 10.1, "unit": "μg DAOG/ml"}, {"measurement": "μg DAOG/ml", "setting": "[2]; resting cells 13 mg/ml dry cell weight, 2 mg/ml penicillin G, 2 h, cofactor omitted: None", "value": 10.5, "unit": "μg DAOG/ml"}, {"measurement": "μg DAOG/ml", "setting": "[2]; resting cells 13 mg/ml dry cell weight, 2 mg/ml penicillin G, 2 h, cofactor omitted: α-ketoglutarate (1.28 mM)", "value": 3.7, "unit": "μg DAOG/ml"}, {"measurement": "DAOG produced", "setting": "[2]; resting cells, Maeda et al. reaction conditions (0.04 mM FeSO4, 0.64 mM α-ketoglutarate)", "value": "about 6 μg/ml"}, {"measurement": "DAOG produced", "setting": "[2]; resting cells, inventive conditions (1.8 mM FeSO4, 1.28 mM α-ketoglutarate)", "value": "about 19 μg/ml"}, {"measurement": "DAOG produced relative to complete reaction", "setting": "[2]; resting cells, two hours, omission of Fe2+, α-ketoglutarate, or ascorbic acid", "value": "about 30%"}, {"measurement": "μg DAOG/ml", "setting": "[2]; resting cells, ATP concentration 0 (mM)", "value": 6.6, "unit": "μg DAOG/ml"}, {"measurement": "μg DAOG/ml", "setting": "[2]; resting cells, ATP concentration 0.14 (mM)", "value": 6.4, "unit": "μg DAOG/ml"}, {"measurement": "μg DAOG/ml", "setting": "[2]; resting cells, ATP concentration 0.35 (mM)", "value": 6.4, "unit": "μg DAOG/ml"}, {"measurement": "μg DAOG/ml", "setting": "[2]; resting cells, ATP concentration 0.7 (mM)", "value": 6.6, "unit": "μg DAOG/ml"}, {"measurement": "μg DAOG/ml", "setting": "[2]; resting cells, ATP concentration 2.4 (mM)", "value": 6.6, "unit": "μg DAOG/ml"}, {"measurement": "μg DAOG/ml", "setting": "[2]; resting cells, ATP concentration 3.5 (mM)", "value": 4.7, "unit": "μg DAOG/ml"}, {"measurement": "μg DAOG/ml", "setting": "[2]; resting cells, Ascorbate concentration 0 (mM)", "value": 2.4, "unit": "μg DAOG/ml"}, {"measurement": "μg DAOG/ml", "setting": "[2]; resting cells, Ascorbate concentration 0.8 (mM)", "value": 4.0, "unit": "μg DAOG/ml"}, {"measurement": "μg DAOG/ml", "setting": "[2]; resting cells, Ascorbate concentration 2 (mM)", "value": 6.0, "unit": "μg DAOG/ml"}, {"measurement": "μg DAOG/ml", "setting": "[2]; resting cells, Ascorbate concentration 4 (mM)", "value": 6.4, "unit": "μg DAOG/ml"}, {"measurement": "μg DAOG/ml", "setting": "[2]; resting cells, Ascorbate concentration 8 (mM)", "value": 6.4, "unit": "μg DAOG/ml"}, {"measurement": "increase of DAOG production", "setting": "[2]; resting cells, omission of DTT", "value": "approximately 50%"}, {"measurement": "penicillin G expansion", "setting": "[3]; cells grown in MST medium with addition of an alcohol", "value": "completely inhibited"}, {"measurement": "Cephalosporin Production Volumetric", "setting": "[3]; cells grown in MST, 3 hours of reaction, 5.6 mM penicillin G", "value": 5.8, "unit": "µg/mL"}, {"measurement": "Cephalosporin Production Specific", "setting": "[3]; cells grown in MST, 3 hours of reaction, 5.6 mM penicillin G, per mg DCW", "value": 1.0, "unit": "µg/mg"}, {"measurement": "substrate for expandase activity", "setting": "C. acremonium expandase; crude extracts (Kohsaka et al. 1976; Demain et al.)", "value": "not"}, {"measurement": "ring expansion", "setting": "C. acremonium expandase; partially purified enzyme (Kupka et al. 1983)", "value": "does not expand"}, {"measurement": "production of cephalosporins", "setting": "[4]", "value": "about 7 μg/ml"}]}]}
